Assay type in all cases: biochemical
What all share (conditions): kinase assay by one of methods A, B or C

The target of one test is T1, BTK (Homo sapiens, UniProt Q06187).
T1 construct: purified from insect cells as a full-length construct containing a N-terminal 6×-His tag; His6 (N); made in house; host or cells: insect cells (baculovirus, Sf21)
As to the kind of experiment: Btk in vitro inhibitory activity / inhibition of a panel of kinases (TR-FRET, mobility shift or radiometric filter binding). On the procedure: (§1) Btk kinase activity is determined using a time-resolved fluorescence resonance energy transfer (TR-FRET) methodology. Measurements are performed in a reaction volume of 50 μL using 96-well assay plates. Kinase enzyme, inhibitor, ATP (at the Km for the kinase), and 1 μM peptide substrate (Biotin-AVLESEEELYSSARQ-NH2) are incubated in a reaction buffer composed of 20 mM Tris, 50 mM NaCl, MgCl2 (5-25 mM depending on the kinase), MnCl2 (0-10 mM), 1 mM DTT, 0.1 mM EDTA, 0.01% bovine serum albumin, 0.005% Tween-20, and 10% DMSO at pH 7.4 for one hour. The reaction is quenched by the addition of 1.2 equivalents of EDTA (relative to divalent cation) in 25 μL of 1× Lance buffer (Perkin-Elmer). Streptavidin-APC (Perkin-Elmer) and Eu-labeled p-Tyr100 antibody (Perkin-Elmer) in 1× Lance buffer are added in a 25 μL volume to give final concentrations of 100 nM and 2.5 nM, respectively, and the mixture is allowed to incubate for one hour. The TR-FRET signal is measured on a multimode plate reader with an excitation wavelength (λEx) of 330 nm and detection wavelengths (λEm) of 615 and 665 nm. Activity is determined by the ratio of the fluorescence at 665 nm to that at 615 nm. For each compound, enzyme activity is measured at various concentrations of compound. Negative control reactions are performed in the absence of inhibitor in replicates of six, and two no-enzyme controls are used to determine baseline fluorescence levels. Inhibition constants, Ki(app), ware obtained using the program BatchKi (Kuzmic et al. (2000), Anal. Biochem. 286:45-50). IC50s are obtained according to the equation: IC50={Ki(app)/(1+[ATP]/Km^ATP)}+[E]total/2;
(§2) For all kinases, [ATP]=Km^ATP, [Btk]total=0.5 nM and [Lck]total=6 nM.
(§3) Kinase activity is measured in vitro using electrophoretic mobility shift assay. The kinase reactions are assembled in a total volume of 25 μL in 384 well plates. The reactions comprise: BTK enzyme (1 nM, N-terminal His6-tagged, recombinant, full-length, human BTK purified from baculovirus Sf21 insect cell system), inhibitor, ATP ([…] the apparent Km for the kinase), fluorescently labeled peptide substrate (1 μM, FAM-GEEPLYWSFPAKKK-NH2) in a reaction buffer composed of 100 mM HEPES, pH7.5, 5 mM MgCl2 1 mM DTT, 0.1% bovine serum albumin, 0.01% Triton X-100, and 1% DMSO. The reaction is incubated for one hour and is quenched by the addition of 45 μL of termination buffer (100 mM HEPES, pH7.5, 0.01% Triton X-100, 30 mM EDTA). The terminated reactions are analyzed using 12 channel LabChip® 3000 microfluidic detection instrument (Caliper Life Sciences). The enzymatic phosphorylation of the peptide results in a change in net charge, enabling electrophoretic separation of product from substrate peptide. As substrate and product peptides are separated, two peaks of fluorescence are observed. Change in the relative fluorescence intensity of the substrate and product peaks is the parameter measured, reflecting enzyme activity. In the presence of an inhibitor, the ratio between product and substrate is altered: the signal of the product decreases, while the signal of the substrate increases.
(§4) Activity in each sample is determined as the product to sum ratio (PSR):P/(S+P), where P is the peak height of the product peptide and S is the peak height of the substrate peptide. For each compound, enzyme activity is measured at various concentrations (12 concentrations of compound spaced by 3× dilution intervals). Negative control samples (0%-inhibition in the absence of inhibitor) and positive control samples (100%-inhibition, in the presence of 20 mM EDTA) are assembled in replicates of four and are used to calculate %-inhibition values for each inhibitor at each concentration. Percent inhibition (Pinh) is determined using following equation: […]
Background: Time-resolved FRET reads energy transfer from a long-lived donor to a nearby acceptor.

In another test the target is EGFR (Homo sapiens, UniProt P00533). The test can be described thus: Inhibition of a panel of kinases: EGFR. On the procedure: as §1, §2, §3, §4
In another test the target is LCK (Homo sapiens, UniProt P06239). The test can be described thus: Inhibition of a panel of kinases: LCK. Here is the method: as §1, §2, §3, §4

Bounds are passed on as bounds.

For orientation: IC50 means the concentration that inhibits the measured activity by half.

T1 sequence (Q06187 whole entry): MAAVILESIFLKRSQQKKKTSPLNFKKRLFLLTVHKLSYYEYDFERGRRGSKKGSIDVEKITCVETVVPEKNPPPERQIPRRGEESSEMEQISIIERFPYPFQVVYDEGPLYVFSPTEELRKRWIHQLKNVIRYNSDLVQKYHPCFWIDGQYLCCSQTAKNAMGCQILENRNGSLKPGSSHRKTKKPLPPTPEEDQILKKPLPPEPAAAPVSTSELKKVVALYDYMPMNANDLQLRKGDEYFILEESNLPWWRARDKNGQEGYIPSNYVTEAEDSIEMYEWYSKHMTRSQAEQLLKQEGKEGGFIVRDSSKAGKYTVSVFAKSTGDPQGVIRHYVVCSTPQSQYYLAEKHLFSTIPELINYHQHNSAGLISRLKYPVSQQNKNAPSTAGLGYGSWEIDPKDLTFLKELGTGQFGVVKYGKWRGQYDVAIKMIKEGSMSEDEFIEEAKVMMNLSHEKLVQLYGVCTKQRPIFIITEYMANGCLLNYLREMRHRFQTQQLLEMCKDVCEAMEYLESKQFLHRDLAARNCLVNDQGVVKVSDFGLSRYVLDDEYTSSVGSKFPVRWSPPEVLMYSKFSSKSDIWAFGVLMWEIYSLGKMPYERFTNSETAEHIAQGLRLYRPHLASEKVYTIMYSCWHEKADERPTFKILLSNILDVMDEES
LCK, sequence (P06239 whole entry, species assumed): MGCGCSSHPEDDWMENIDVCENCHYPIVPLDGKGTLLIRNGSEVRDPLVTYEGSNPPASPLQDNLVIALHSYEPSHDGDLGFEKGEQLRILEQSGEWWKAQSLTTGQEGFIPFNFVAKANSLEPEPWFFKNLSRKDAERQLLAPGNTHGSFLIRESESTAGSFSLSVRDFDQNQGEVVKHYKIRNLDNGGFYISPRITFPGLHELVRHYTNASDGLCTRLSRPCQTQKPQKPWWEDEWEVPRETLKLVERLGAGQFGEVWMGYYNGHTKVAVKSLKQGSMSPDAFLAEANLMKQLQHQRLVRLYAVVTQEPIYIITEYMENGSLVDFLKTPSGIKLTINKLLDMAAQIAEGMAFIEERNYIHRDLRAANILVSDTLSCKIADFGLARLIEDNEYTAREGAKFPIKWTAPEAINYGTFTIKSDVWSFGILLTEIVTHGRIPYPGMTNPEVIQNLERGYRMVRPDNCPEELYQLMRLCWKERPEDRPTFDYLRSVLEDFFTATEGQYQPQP
EGFR, sequence (P00533 25-1210, species assumed): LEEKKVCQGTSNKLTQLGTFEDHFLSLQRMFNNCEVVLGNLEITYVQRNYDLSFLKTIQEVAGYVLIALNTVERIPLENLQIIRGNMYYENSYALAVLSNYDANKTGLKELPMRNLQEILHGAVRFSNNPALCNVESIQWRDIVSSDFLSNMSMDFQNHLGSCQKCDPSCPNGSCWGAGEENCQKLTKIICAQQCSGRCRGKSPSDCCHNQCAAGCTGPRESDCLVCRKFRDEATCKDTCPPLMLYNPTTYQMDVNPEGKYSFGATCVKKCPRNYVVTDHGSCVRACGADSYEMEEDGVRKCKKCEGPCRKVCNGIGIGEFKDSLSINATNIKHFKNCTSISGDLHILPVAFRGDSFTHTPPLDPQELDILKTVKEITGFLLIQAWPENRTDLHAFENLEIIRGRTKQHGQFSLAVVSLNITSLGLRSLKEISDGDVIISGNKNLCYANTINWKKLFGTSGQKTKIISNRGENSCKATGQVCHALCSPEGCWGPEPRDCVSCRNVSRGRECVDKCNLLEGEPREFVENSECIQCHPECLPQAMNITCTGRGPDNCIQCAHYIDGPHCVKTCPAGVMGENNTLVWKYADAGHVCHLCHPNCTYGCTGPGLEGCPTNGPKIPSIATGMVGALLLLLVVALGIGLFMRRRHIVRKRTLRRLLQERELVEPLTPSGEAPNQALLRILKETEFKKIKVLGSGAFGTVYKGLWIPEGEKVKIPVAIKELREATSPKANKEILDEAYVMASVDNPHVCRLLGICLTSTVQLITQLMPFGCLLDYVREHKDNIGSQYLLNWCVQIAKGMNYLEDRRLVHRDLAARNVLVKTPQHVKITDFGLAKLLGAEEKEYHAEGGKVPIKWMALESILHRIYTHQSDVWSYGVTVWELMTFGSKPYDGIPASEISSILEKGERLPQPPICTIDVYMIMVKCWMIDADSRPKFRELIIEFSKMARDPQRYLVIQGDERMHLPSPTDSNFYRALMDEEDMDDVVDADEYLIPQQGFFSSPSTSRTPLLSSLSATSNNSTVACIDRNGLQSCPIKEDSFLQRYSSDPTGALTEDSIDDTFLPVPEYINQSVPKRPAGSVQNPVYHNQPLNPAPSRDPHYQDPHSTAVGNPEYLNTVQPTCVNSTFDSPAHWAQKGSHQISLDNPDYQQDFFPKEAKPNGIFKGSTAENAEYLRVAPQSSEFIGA

Consider `CN(C/C=C/C(=O)N1CC[C@@H](n2c(F)c(-c3ccc(Oc4ccccc4)cc3)c3c(N)ncnc32)C1)C1CC1` [Compound 5, (R,E)-1-(3-(4-amino-6-fluoro-5-(4-phenoxyphenyl)-7H-pyrrolo[2,3-d]pyrimidin-7-yl)pyrrolidin-1-yl)-4-(cyclopropyl(methyl)amino)but-2-en-1-one], for which the IC50 at BTK is less than 100 nM; against EGFR, 1000 to 10000 nM; at LCK, less than 100 nM.
In the case of `CN(C/C=C/C(=O)N1CC[C@@H](n2c(Cl)c(-c3ccc(Oc4ccccc4)cc3)c3c(N)ncnc32)C1)C1CC1` [Compound 8, (R,E)-1-(3-(4-amino-6-chloro-5-(4-phenoxyphenyl)-7H-pyrrolo[2,3-d]pyrimidin-7-yl)pyrrolidin-1-yl)-4-(cyclopropyl(methyl)amino)but-2-en-1-one], the IC50 was less than 100 nM on BTK, 1000 to 10000 nM at EGFR and less than 100 nM against LCK.
For the compound `Cc1c(-c2ccc(Oc3ccccc3)cc2)c2c(N)ncnc2n1[C@@H]1CCN(C(=O)/C=C/CN(C)C2CC2)C1` [Compound 12, (R,E)-1-(3-(4-amino-6-methyl-5-(4-phenoxyphenyl)-7H-pyrrolo[2,3-d]pyrimidin-7-yl)pyrrolidin-1-yl)-4-(cyclopropyl(methyl)amino)but-2-en-1-one], the IC50 at BTK was less than 100 nM; on EGFR, 1000 to 10000 nM; against LCK, less than 100 nM.
Consider `CN(C)C/C=C/C(=O)N1CC[C@@H](n2c(F)c(-c3ccc(Oc4ccccc4)cc3)c3c(N)ncnc32)C1` [Compound 13, (R,E)-1-(3-(4-amino-6-fluoro-5-(4-phenoxyphenyl)-7H-pyrrolo[2,3-d]pyrimidin-7-yl)pyrrolidin-1-yl)-4-(dimethylamino)but-2-en-1-one], for which the figures for the IC50 on BTK, against EGFR and at LCK were less than 100 nM, 1000 to 10000 nM and less than 100 nM, respectively.
Turning to `CN(C)C/C=C/C(=O)N1CC[C@@H](n2c(Cl)c(-c3ccc(Oc4ccccc4)cc3)c3c(N)ncnc32)C1` [Compound 14, (R,E)-1-(3-(4-amino-6-chloro-5-(4-phenoxyphenyl)-7H-pyrrolo[2,3-d]pyrimidin-7-yl)pyrrolidin-1-yl)-4-(dimethylamino)but-2-en-1-one], the IC50 on BTK was less than 100 nM; on EGFR, 1000 to 10000 nM; at LCK it was less than 100 nM.
Take `Cc1c(-c2ccc(Oc3ccccc3)cc2)c2c(N)ncnc2n1[C@@H]1CCN(C(=O)/C=C/CN(C)C)C1` [Compound 15, (R,E)-1-(3-(4-amino-6-methyl-5-(4-phenoxyphenyl)-7H-pyrrolo[2,3-d]pyrimidin-7-yl)pyrrolidin-1-yl)-4-(dimethylamino)but-2-en-1-one]: the IC50 on BTK was less than 100 nM; against EGFR it was 1000 to 10000 nM; on LCK, less than 100 nM.
Regarding `CN(C(=O)/C=C/CN(C)C1CC1)c1cccc(-n2c(Cl)c(-c3ccc(Cl)cc3)c3c(N)ncnc32)c1` [Compound 23, (E)-N-(3-(4-amino-6-chloro-5-(4-chlorophenyl)-7H-pyrrolo[2,3-d]pyrimidin-7-yl)phenyl)-4-(cyclopropyl(methyl)amino)-N-methylbut-2-enamide], the values for the IC50 on BTK, at EGFR and on LCK were less than 100 nM, 1000 to 10000 nM and 1000 to 10000 nM, respectively.
With `COc1cc(-c2c(Cl)n(-c3cccc(N(C)C(=O)/C=C/CN(C)C4CC4)c3)c3ncnc(N)c23)ccc1C` [Compound 36, (E)-N-(3-(4-amino-6-chloro-5-(3-methoxy-4-methylphenyl)-7H-pyrrolo[2,3-d]pyrimidin-7-yl)phenyl)-4-(cyclopropyl(methyl)amino)-N-methylbut-2-enamide], the figures for the IC50 at BTK, at EGFR and on LCK were less than 100 nM, 1000 to 10000 nM and 1000 to 10000 nM, respectively.
For the compound `CN(C/C=C/C(=O)N1CC[C@@H](n2c(Cl)c(-c3ccc(Cl)cc3)c3c(N)ncnc32)C1)C1CC1` [Compound 38, (R,E)-1-(3-(4-amino-6-chloro-5-(4-chlorophenyl)-7H-pyrrolo[2,3-d]pyrimidin-7-yl)pyrrolidin-1-yl)-4-(cyclopropyl(methyl)amino)but-2-en-1-one], the IC50 at BTK was less than 100 nM; against LCK it was 1000 to 10000 nM.
On to `C=CC(=O)N1CC[C@@H](n2c(Cl)c(-c3ccc(Cl)cc3)c3c(N)ncnc32)C1` [Compound 39, (R)-1-(3-(4-amino-6-chloro-5-(4-chlorophenyl)-7H-pyrrolo[2,3-d]pyrimidin-7-yl)pyrrolidin-1-yl)prop-2-en-1-one], for which the half-inhibitory concentration (IC50) on BTK was less than 100 nM; on EGFR, less than 100 nM; against LCK, 100 to 1000 nM.
In the case of `CN(C)C/C=C/C(=O)N1CC[C@@H](n2c(Cl)c(-c3ccc(Cl)cc3)c3c(N)ncnc32)C1` [Compound 40, (R,E)-1-(3-(4-amino-6-chloro-5-(4-chlorophenyl)-7H-pyrrolo[2,3-d]pyrimidin-7-yl)pyrrolidin-1-yl)-4-(dimethylamino)but-2-en-1-one], the IC50 at BTK is less than 100 nM; on EGFR, 100 to 1000 nM; on LCK, 100 to 1000 nM.
Turning to `C=CC(=O)N1CC[C@@H](n2c(F)c(-c3ccc(Cl)cc3)c3c(N)ncnc32)C1` [Compound 42, (R)-1-(3-(4-amino-5-(4-chlorophenyl)-6-fluoro-7H-pyrrolo[2,3-d]pyrimidin-7-yl)pyrrolidin-1-yl)prop-2-en-1-one], the IC50 at BTK was less than 100 nM; on EGFR, less than 100 nM; against LCK, 100 to 1000 nM.
In the case of `C=CC(=O)N1CC[C@@H](n2c(C)c(-c3ccc(Cl)cc3)c3c(N)ncnc32)C1` [Compound 44, (R)-1-(3-(4-amino-5-(4-chlorophenyl)-6-methyl-7H-pyrrolo[2,3-d]pyrimidin-7-yl)pyrrolidin-1-yl)prop-2-en-1-one], the results for the half-inhibitory concentration (IC50) at BTK, on EGFR and against LCK were less than 100 nM, less than 100 nM and 100 to 1000 nM, respectively.
As to `C=CC(=O)N1CC[C@@H](n2c(OC)c(-c3ccc(Cl)cc3)c3c(N)ncnc32)C1` [Compound 46, (R)-1-(3-(4-amino-5-(4-chlorophenyl)-6-methoxy-7H-pyrrolo[2,3-d]pyrimidin-7-yl)pyrrolidin-1-yl)prop-2-en-1-one], the IC50 was less than 100 nM on BTK, less than 100 nM at EGFR and 100 to 1000 nM against LCK.
As for `Cc1c(-c2ccc(Oc3ccccc3)cc2)c2c(N)ncnc2n1[C@@H]1CCN(C(=O)/C=C/CN(C)[C@H]2CCOC2)C1` [Compound 129, (E)-1-((R)-3-(4-amino-6-methyl-5-(4-phenoxyphenyl)-7H-pyrrolo[2,3-d]pyrimidin-7-yl)pyrrolidin-1-yl)-4-(methyl((S)-tetrahydrofuran-3-yl)amino)but-2-en-1-one], on BTK, the IC50 was less than 100 nM.
Consider `Cc1c(-c2ccc(Oc3ccccc3)cc2)c2c(N)ncnc2n1[C@@H]1CCN(C(=O)/C=C/CN(C)[C@@H]2CCOC2)C1` [Compound 130, (E)-1-((R)-3-(4-amino-6-methyl-5-(4-phenoxyphenyl)-7H-pyrrolo[2,3-d]pyrimidin-7-yl)pyrrolidin-1-yl)-4-(methyl((R)-tetrahydrofuran-3-yl)amino)but-2-en-1-one], for which, at BTK, the IC50 was less than 100 nM.
Regarding `CN(C/C=C/C(=O)N1CC[C@@H](n2c(N)c(-c3ccc(Oc4ccccc4)cc3)c3c(N)ncnc32)C1)C1CC1` [Compound 162, (R,E)-4-(cyclopropyl(methyl)amino)-1-(3-(4,6-diamino-5-(4-phenoxyphenyl)-7H-pyrrolo[2,3-d]pyrimidin-7-yl)pyrrolidin-1-yl)but-2-en-1-one], the IC50 on BTK is less than 100 nM.
